According to PubChem BioAssay AID1963425 (Molecular Pharmacology Branch, DTP, NCI, 2024):

Test system: 323965-272-R-J2-PDC complex spheroid growth, % test/control
Assay: Anticancer human tumor 323965-272-R-J2-PDC patient-derived pancreatic carcinoma cell line growth inhibition [Asc]
Settings: for IC50: curve of first compound; for viability, T/C: stronger effect = lower value
Procedure: Multicellular complex tumor spheroid response to apoptosis pathway targeting inhibitors Alrizomadlin, Pelcitoclax, and Dasminapant in combination with a variety of drugs and investigational agents in selected tumor cell lines
The MDM2 inhibitor alrizomadlin, the Bcl-2/Bcl-xL inhibitor pelcitoclax, and the IAPs inhibitor dasminapant were evaluated both individually and in combination with standard of care and investigational anticancer small molecules within a complex spheroid model of solid tumors. . Complex spheroids include a stromal component modeled by human endothelial cells (HUVEC) and fibroblasts modeled by human mesenchymal stem cells (MSCs). The concentration ranges selected for each drug and investigational agent were based upon clinically achievable concentrations if the clinical Cmax of the agent was known.
Compounds. The drugs and investigational agents: alrizomadlin (APG-115; NSC831270), pelcitoclax (APG-1252; NSC835773), dasminapant (APG-1387;NSC834197), TAK-243 (NSC785004), copanlisib (NSC809693), olaparib (NSC753686), talazoparib (NSC767125), cobimetinib (NSC 768068), eltanexor (KPT-8602, NSC 794443), abemaciclib (NSC 768073), sotorasib (NSC818433), adagrasib (NSC 831453), MRTX-1133 (NSC 836407), Iadademestat (ORY1001, NSC 806812), and RMC-4630 (NSC839698), were obtained from the NCI Developmental Therapeutics Program Chemical Repository. The FDA-approved anticancer drug set is available from the Developmental Therapeutics Program at https://dtp.cancer.gov/organization/dscb/obtaining/available plates.htm. […] The stock solutions were prepared in dimethyl sulfoxide (DMSO, Sigma-Aldrich, St. Louis, MO, cat. D2650) at 800-fold the tested concentration and stored at -70 degrees C prior to their use. All drugs and investigational agents were tested over a range starting from a high concentration at or near the clinical Cmax and decreasing in half-log increments. If the clinical Cmax for an agent had not been determined, the highest concentration tested was 10 microM.
The patient-derived cancer (PDC) cell lines include five colon adenocarcinomas: 186277-243-T-J2-PDC, 616215-338-R-J1-PDC, 439559-082-T-J2-PDC, 463943-066-T-J2-PDC, and 519858-162-T-J1-PDC; three pancreatic carcinomas: 323965-272-R-J2-PDC, 521955-158-R6-J3-PDC, and 521955-158-R2-J5-PDC; two uterine sarcomas: 327498-152-R-J2-PDC and 993429-296-R-J1-PDC; two rhabdomyosarcomas: 755483-174-R-J1-PDC and 772245-204-R-J1-PDC; two soft tissue sarcomas: 126254-015-R-J1-PDC and 494315-158-R-J1-PDC; two malignant fibrous histiocytomas: 317291-083-R-J1-PDC and 596521-263-R-J1-PDC; two breast carcinomas: 171881-019-R-J1-PDC and 885512-296-R-J2-PDC; and one ovarian carcinoma: 6556581-035-R-J-PDC were obtained from the NCI PDMR, (https://pdmr.cancer.gov). The established cell lines HSSY-2 synovial sarcoma (RRID:CVCL 8719), SYO-1 synovial sarcoma (RRID:CVCL_7146), MPNST malignant peripheral neural sheath tumor were obtained from the Sloan Kettering Institute. The following established cell lines were purchased from the American Type Culture Collection (ATCC, Manassas, VA), Sor the received from the NCI repository:, PANC-1 pancreatic carcinoma (CRL-1469, RRID:CVCL_0480), OVCAR-5 ovarian carcinoma (RRID:CVCL_1628), OVCAR-8 ovarian carcinoma (RRID:CVCL_1629), , MCF-7 breast carcinoma (CRL-12584, RRID:CVCL_0031), MDA-MB-231 breast carcinoma (CRL-12532, RRID:CVCL_0062), NCI-H1876 small cell lung carcinoma (CRL-5902, RRID:CVCL_1503), NCI-H510A small cell lung carcinoma (HTB-184, RRID:CVCL_1565), NCI-H1417 (CRL-5869, RRID:CVCL_1469), and NCI-H196 small cell lung carcinoma (CRL-5823, RRID:CVCL_1509). Dr. Peter Houghton (Greehey Children's Cancer Research Institute, University of Texas Health Science Center, San Antonio, TX) provided Rh-18 rhabdomyosarcoma (RRID:CVCL_1659). Pooled donor human umbilical vein endothelial cells (HUVEC, Lonza, cat. CC-2519) and human mesenchymal stem cells (hMSC, Lonza, cat. PT-2501) were purchased from Lonza (Walkersville, MD).
Cell Culture. […]

[1] = second compound 0.00949 µM, first compound 0.00316 µM
[2] = second compound 0.00949 µM, first compound 0.01 µM
[3] = second compound 0.00949 µM, first compound 0.0316 µM
[4] = second compound 0.00949 µM, first compound 0.1 µM
[5] = second compound 0.00949 µM, first compound 0.316 µM
[6] = second compound 0.00949 µM, first compound 1 µM
[7] = second compound 0.03 µM, first compound 0.00316 µM
[8] = second compound 0.03 µM, first compound 0.01 µM
[9] = second compound 0.03 µM, first compound 0.0316 µM
[10] = second compound 0.03 µM, first compound 0.1 µM
[11] = second compound 0.03 µM, first compound 0.316 µM
[12] = second compound 0.03 µM, first compound 1 µM
[13] = second compound 0.0949 µM, first compound 0.00316 µM
[14] = second compound 0.0949 µM, first compound 0.01 µM
[15] = second compound 0.0949 µM, first compound 0.0316 µM
[16] = second compound 0.0949 µM, first compound 0.1 µM
[17] = second compound 0.0949 µM, first compound 0.316 µM
[18] = second compound 0.0949 µM, first compound 1 µM
[19] = second compound 0.3 µM, first compound 0.00316 µM
[20] = second compound 0.3 µM, first compound 0.01 µM
[21] = second compound 0.3 µM, first compound 0.0316 µM
[22] = second compound 0.3 µM, first compound 0.1 µM
[23] = second compound 0.3 µM, first compound 0.316 µM
[24] = second compound 0.3 µM, first compound 1 µM
[25] = second compound 0.949 µM, first compound 0.00316 µM
[26] = second compound 0.949 µM, first compound 0.01 µM
[27] = second compound 0.949 µM, first compound 0.0316 µM
[28] = second compound 0.949 µM, first compound 0.1 µM
[29] = second compound 0.949 µM, first compound 0.316 µM
[30] = second compound 0.949 µM, first compound 1 µM
[31] = second compound 3 µM, first compound 0.00316 µM
[32] = second compound 3 µM, first compound 0.01 µM
[33] = second compound 3 µM, first compound 0.0316 µM
[34] = second compound 3 µM, first compound 0.1 µM
[35] = second compound 3 µM, first compound 0.316 µM
[36] = second compound 3 µM, first compound 1 µM
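Further: compound exposure lasted 7 days starting three days after spheroid seeding.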
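Wherever viability, T/C is given: 100% = DMSO vehicle control wells with viability set relative to vehicle.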

CCN1CCN(Cc2ccc(Nc3ncc(F)c(-c4cc(F)c5nc(C)n(C(C)C)c5c4)n3)nc2)CC1 + CCN1C(C(=O)NC23CCC(C(=O)O)(CC2)CC3)C(c2cccc(Cl)c2F)C2(C(=O)Nc3cc(Cl)ccc32)C12CCCCC2
IC50 (second compound 0.00949 µM): > 1000 nM
IC50 (second compound 0.03 µM): > 1000 nM
IC50 (second compound 0.0949 µM): > 1000 nM
IC50 (second compound 0.3 µM): > 1000 nM
IC50 (second compound 0.949 µM): > 1000 nM
IC50 (second compound 3 µM): > 1000 nM
viability, T/C [1]: 107%
viability, T/C [2]: 107%
viability, T/C [3]: 105%
viability, T/C [4]: 86.2%
viability, T/C [5]: 68.7%
viability, T/C [6]: 77%
viability, T/C [7]: 103%
viability, T/C [8]: 104%
viability, T/C [9]: 96.7%
viability, T/C [10]: 84.5%
viability, T/C [11]: 69.5%
viability, T/C [12]: 65.8%
viability, T/C [13]: 118%
viability, T/C [14]: 112%
viability, T/C [15]: 92.2%
viability, T/C [16]: 80%
viability, T/C [17]: 70.3%
viability, T/C [18]: 65.2%
viability, T/C [19]: 111%
viability, T/C [20]: 104%
viability, T/C [21]: 96.6%
viability, T/C [22]: 78.9%
viability, T/C [23]: 85.1%
viability, T/C [24]: 77.1%
viability, T/C [25]: 99.8%
viability, T/C [26]: 107%
viability, T/C [27]: 95.9%
viability, T/C [28]: 85.8%
viability, T/C [29]: 73.1%
viability, T/C [30]: 77.5%
viability, T/C [31]: 101%
viability, T/C [32]: 115%
viability, T/C [33]: 97%
viability, T/C [34]: 77%
viability, T/C [35]: 78%
viability, T/C [36]: 78.9%

O=C(c1ccc(F)c(F)c1Nc1ccc(I)cc1F)N1CC(O)([C@@H]2CCCCN2)C1 + CCN1C(C(=O)NC23CCC(C(=O)O)(CC2)CC3)C(c2cccc(Cl)c2F)C2(C(=O)Nc3cc(Cl)ccc32)C12CCCCC2
IC50 (second compound 0.00949 µM): 119 nM
IC50 (second compound 0.03 µM): 150 nM
IC50 (second compound 0.0949 µM): 127 nM
IC50 (second compound 0.3 µM): 134 nM
IC50 (second compound 0.949 µM): 121 nM
IC50 (second compound 3 µM): 81 nM
viability, T/C [1]: 110%
viability, T/C [2]: 88.1%
viability, T/C [3]: 75%
viability, T/C [4]: 52.1%
viability, T/C [5]: 32.1%
viability, T/C [6]: 19.9%
viability, T/C [7]: 113%
viability, T/C [8]: 92%
viability, T/C [9]: 86.3%
viability, T/C [10]: 57.3%
viability, T/C [11]: 33.6%
viability, T/C [12]: 19.4%
viability, T/C [13]: 103%
viability, T/C [14]: 89.5%
viability, T/C [15]: 75.2%
viability, T/C [16]: 55.3%
viability, T/C [17]: 32.7%
viability, T/C [18]: 19.1%
viability, T/C [19]: 93.7%
viability, T/C [20]: 106%
viability, T/C [21]: 75.7%
viability, T/C [22]: 54.6%
viability, T/C [23]: 37.1%
viability, T/C [24]: 19.2%
viability, T/C [25]: 96.3%
viability, T/C [26]: 95.9%
viability, T/C [27]: 72.9%
viability, T/C [28]: 54%
viability, T/C [29]: 33.4%
viability, T/C [30]: 19.7%
viability, T/C [31]: 97.6%
viability, T/C [32]: 85.2%
viability, T/C [33]: 65.6%
viability, T/C [34]: 46.7%
viability, T/C [35]: 29.6%
viability, T/C [36]: 18.3%
